From US20080139804A1, “Photosensitive Compounds” (priority 2005, published 2008)
Values joined by “and” are separate entries in the source; they are usually repeats but may differ in a detail not shown here. Equal values may be shown once. “Also recorded” adds a separate entry of the source.

Experiments:
[1] = patients administered therewith; cited from earlier work
[2] = tested on: cancer cells; settings: photo-irradiation; cited from earlier work
[3] = In vivo pharmacokinetics of zinc coproporphyrin-I in HeLa tumor-bearing nude mice (tissue fluorescence); set-up: species or system (BALB/c) nude mouse; settings: 25 mg/kg intravenous in physiological saline, back and muscle, excitation 405 nm, fluorescence 580 nm
Description: In the back of a (BALB/c) nude mouse, 5×10^6 HeLa cells in 0.1 ml were transplanted intradermally. When the tumor grew to 12-17 mm diameter, 25 mg/kg of zinc coproporphyrin-I in physiological saline was intravenously injected, and mice were sacrificed at each time shown in FIG. 2, and then zinc coproporphyrin-I in 3 kinds of tissues (tumor, back and muscle) was measured with excitation at 405 nm and fluorescence at 580 nm.

[4] = Photophysical characteristics: absorption spectrum; format: physicochemical
From the text: Measurement of Photophysical Characteristics of Zinc Coproporphyrin-I

[5] = Photophysical characteristics: generation of singlet oxygen (near infrared emission); format: physicochemical; settings: excitation at 563 nm, emission at 1270 nm in near infrared light
From the text: Also, the generation of singlet oxygen was confirmed with excitation at 563 nm and emission at 1270 nm in near infrared light.

[6] = tested on: DNA; assay: DNA breakage under light irradiation; format: biochemical; settings: under the irradiation of 350 nm light
From the text: (§1) Thus, after systemic administration of these compounds systemically, cancer tissues can be selectively killed, and the cancer can be treated without side effects by irradiating light only on the cancer tissues. Therefore, these compounds can be used as photodynamic therapy agents not only for surface cancer types (for example, breast cancer, skin cancer, esophageal cancer) but also deep cancer types (for example, gastric cancer, lung cancer).

[7] = Anti-cellular activity with and without light irradiation, in vitro system using mice; format: cell-based
From the text: as §1

[8] = tested on: HeLa tumor; assay: Drug efficacy of the agent for photodynamic therapy: laser irradiation of HeLa tumor in nude mouse, HE-stained sections; settings: 203 mg/kg i.v.; YAG-Dye laser 580 nm after 28 minutes, 100 J/cm^2; tumors excised 24 hours after irradiation
Description: To the back of a (BALB/c) nude mouse, 5×10^6 HeLa cells in 0.1 ml were intradermally transplanted. […] The wavelength was 580 nm. The light was emitted horizontally to the side of the tumor. To observe the necrosis layer, the tumors were excised out at 24 hours after the laser irradiation, fixed in 20% formaldehyde solution and embedded in paraffin. Sections were prepared, stained with HE and observed.

## C=CC1=C(C)C2=CC3=C(/C=C/NO)C(C)(O)C(=CC4=NC(=CC5=NC(=CC1=N2)C(C)=C5CCC(=O)N[C@@H](CC(=O)[O-])C(=O)[O-])C(CCC(=O)N[C@@H](CC(=O)[O-])C(=O)[O-])=C4C)N3.[Na+].[Na+].[Na+].[Na+] (stereo partly shown) [ATX-S10 (Na)]
[1]
  complete excretion period from the body: 7 to 8 h

## coproporphyrin-III
[2]
  toxic effect on cancer cells compared to that of hematoporphyrin: superior toxic effect

## zinc coproporphyrin-I
[3]
  time until excreted out of the body: 3 to 4 days
[4]
  absorption peaks: 403 nm and 535 nm and 571 nm
[5]
  generation of singlet oxygen: confirmed
[6]
  DNA breakage: can break DNA efficiently
[7]; irradiation of light which induces DNA cleavage
  anti-cellular activity under the irradiation of light: strong anti-cellular activity
[7]; without light irradiation
  anti-cellular activity by themselves: do not demonstrate any anti-cellular activity
[8]
  cells appearing to be dead: about 10 % of the total cells
  histological observations after light irradiation of the HeLa tumor: thrombus formation in the capillary vessels and hemorrhage inside of the tissues; also recorded: anucleated cells, chromatin condensed cells and cells with ruptured vacuoles were seen
